For 69 compounds, EC50, IC50 and outcome results are on record in PubChem BioAssay AID179 (DTP/NCI, 2004).

This experiment concerns CEM cells HIV-1 protection, formazan growth assay. In words: NCI AIDS Antiviral Assay. The settings on record: for pIC50: measured here: growth of uninfected CEM cells. The method, boiled down:
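Protection of CEM cells against HIV-1 was scored from cell growth (soluble formazan) across five concentrations, with parallel uninfected cells. Lack of protection may reflect toxicity.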

pEC50, pIC50: −log10 of the molar value. Several values for one entry are separate records, joined by “and”; a condition that tells them apart may be missing. Equal entries are not always repeated. Activity calls are given as the source filed them.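 The calls were made as follows: active = compounds giving half or more protection of infected cells from virus-caused growth loss, again on retest; inactive = the rest.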

On to `COC1C(OC(N)=O)C(O)C(Oc2ccc3c(O)c(NC(=O)c4ccc(O)c(CC=C(C)C)c4)c(=O)oc3c2C)OC1(C)C` (configuration not stated), for which the pEC50 was under 3.41 and the pIC50 was 4.10. For `CCOc1ccc(NC(=S)/N=C/C(C(=O)Nc2ccccc2C)=C(\C)O)cc1`, in that order: under 3.70 and under 3.70. With `CC1(C)COC(c2cccc(C3=NC(C)(C)CO3)n2)=N1`, the pEC50 was under 4.58 and the pIC50 is under 4.58. On to `COCOC1C(=O)N(c2ccccc2)[C@@H]1c1ccccc1` (some centres not stated), for which the pEC50 was under 4.04 and the pIC50 was under 4.04. For `CC1(CO)C(O)CCC2(C)C1CCC1CC3CC12CCC3(O)CO` (configuration not stated), the pEC50 was under 3.56 and the pIC50 was 6.40. For `O=C1CCCCCC1CC(Sc1ccccc1)Sc1ccccc1` (configuration not stated), in that order: under 3.70 and 4.79. As for `COc1ccc(-c2n[nH]c3c2CCCc2ccccc2-3)cc1`, the pEC50 is under 4.36 and the pIC50 was 4.74. For `O=C1NC(=O)C(COCc2ccccc2)C2=C1SCCC2` (configuration not stated), in that order: under 3.70 and under 3.70.

Regarding `NC1=NS(=O)(=O)N=C(N)C1=NNc1ccc([N+](=O)[O-])cc1`, the pEC50 was under 3.10 and the pIC50 was 3.90. In the same order, the values of `O=C1c2ccccc2C(=O)c2sc(Nc3cccc(Cl)c3)nc21` are under 5.23 and 5.47. For `CN(C)P(=S)(CCPc1ccccc1)N(C)C` (configuration not stated), in that order: under 4.74 and under 4.74. With `CCOC(=O)C1C(c2ccc(OC)cc2)c2c([nH][nH]c2=O)CC1(O)OCC` (configuration not stated), the result was inactive. Take `CNS(=O)(=O)NNS(=O)(=O)c1ccc(Br)cc1`: the pEC50 was under 4.12 and the pIC50 is under 4.12. For the compound `CSc1cc(Br)ccc1-n1c(C(=O)c2ccccc2)c(SC)n(-c2ccccc2)c1=O`, the pEC50 is under 3.70 and the pIC50 is 4.84. Consider `CN=C(NC)c1ccc(NC(=O)c2ccc(C(=O)Nc3ccc(C(=NC)NC)c(C)c3)cc2)cc1C`, for which the outcome was inactive.

For `CC(c1ccc2c(c1)CCC1C2CC2OC23CC=CC(=O)[C@]13C)C1C[C@]2(C)O[C@]2(C)[C@H](O)O1` (some centres not stated), the pEC50 is under 3.70 and the negative-log IC50 (pIC50) is 4.34. For `COc1ccc2nc(C(=O)c3ccccc3)c(C)cc2c1`, in that order: under 4.59 and 4.76. For `C=CCC1(OC(C)=O)C2OC(=O)C1(O)OCC2O` (configuration not stated), in that order: under 3.70 and under 3.70.

On to `CCOC(=O)NC(C)(C)CN(CCO)C(=O)OCC`, for which the pEC50 was under 3.70 and the pIC50 is under 3.70.

`O=C1CCCCCCCCCCC(=O)C2CCOCCOCCOCCC1Cc1cccc(n1)C2`: the pEC50 was under 3.86 and the pIC50 was under 3.86. Regarding `NC(=O)C(=CN1C(=O)CC(=O)NC1=S)C(N)=O`, the pEC50 was under 3.70 and the pIC50 was under 3.70.

Turning to `CC(=N\N=C(N)N)/C(N=Nc1ccc(S(N)(=O)=O)cc1)=N\N=C(N)N`, the pEC50 was under 3.70 and the pIC50 was 5.80. Regarding `CCCN(CCC)C(=O)Cc1c2n(c3ccccc13)Cc1ccccc1-2`, the pEC50 is under 4.82 and the pIC50 is 5.23. Consider `COc1ccc(/C=c2/sc3n(c2=O)C(c2ccccc2)C2(O)CCCCC2N=3)cc1` (configuration not stated), for which the pEC50 was under 3.70 and the pIC50 is under 3.70.

As for `N#CC(=N)c1ncn(-c2ccc(N)cc2)c1N`, the pEC50 was under 3.70 and the pIC50 was 3.71. In the same order, the values of `CC(O)CSP(=S)(Oc1ccccc1)Oc1ccccc1` (configuration not stated) are under 4.40 and under 4.40. In the same order, the values of `CCCC=NCCOC(=S)[S-].CCCC=NCCOC(=S)[S-].[Zn+2]` are under 4.00 and 4.25. For `Cc1ccc(S(=O)(=O)n2c(-c3ccccc3)c(-c3ccccc3)c3ccccc32)cc1`, in that order: under 4.30 and 4.41. As to `N.N.N.N.[Cl-].[Co+3].[N-]=[N+]=[N-].[N-]=[N+]=[N-]`, the outcome was inactive. For the compound `[N-]=[N+]=Nc1cc(=O)[nH]c2ccccc12`, the pEC50 was under 3.70 and the pIC50 is under 3.70. `CCOC(=O)C(Cc1ccccc1)NC(=O)c1[nH]cnc1/N=N/N(C)C` (configuration not stated): the pEC50 was under 3.16 and the pIC50 was 3.45. In the same order, the values of `Nc1c(S(=O)(=O)O)cc2cc(S(=O)(=O)O)ccc2c1N=Nc1ccc(/C=C/c2ccc(N=Nc3c(N)c(S(=O)(=O)O)cc4cc(S(=O)(=O)O)ccc34)cc2S(=O)(=O)O)c(S(=O)(=O)O)c1` are 5.55 and 4.10. In the same order, the values of `CN1C(=O)CN2C(Cl)(Cl)C2(c2ccccc2)c2cc(Cl)ccc21` (configuration not stated) are under 3.70 and 3.92. In the same order, the values of `Cc1csc2nc(-c3ccco3)nn12` are under 3.70 and under 3.70.

Turning to `CCOc1ccc(NC(=O)C2=C(C)NC(C)=C(C(=O)Nc3ccc(OCC)cc3)C2c2ccc(O)c(OC)c2)cc1`, the pEC50 was under 4.77 and the pIC50 was under 4.77. Consider `COc1ccc(NC(=O)CC(=O)n2nc(C)c(N=Nc3ccc(C)c(C)c3)c2C)cc1`, for which the pEC50 is under 3.70 and the pIC50 was under 3.70. For `CC1(O)CCC2(C#N)CCC1C2O` (configuration not stated), the pEC50 was under 2.86 and the pIC50 was under 2.86. With `CC(=O)Nc1c(I)c(C(=O)O)c(I)c(N(C)C(C)=O)c1I`, the pEC50 is under 3.70 and the pIC50 was under 3.70. For the compound `Cc1cccc(N=C2NC(=O)C(CC(=O)Nc3cccc(C)c3C)S2)c1` (configuration not stated), the pEC50 is under 4.15 and the pIC50 was under 4.15.

`Cc1ccc2[nH]c3c(c(=O)n(C)c(=O)n3C)c2c1`: the pEC50 was under 3.70 and the pIC50 was under 3.70. As to `CC(C)C1NC(=O)CC(c2ccccc2)N(N=O)C1c1ccccc1` (configuration not stated), the pEC50 was under 4.11 and the pIC50 is under 4.11. For the compound `Cc1oc2c(C)c3oc(=O)cc(C)c3cc2c1CCl`, the pEC50 was under 4.70 and the pIC50 is 5.53. Turning to `O=C(O)CN1CCN2CCOCCOCCN(CC1)CCN(CC(=O)O)CC2`, the pEC50 is under 3.70 and the pIC50 is 4.46. For the compound `CCOC(=O)C1=C(C)C2C3C(=O)OC(=O)C3C1(C)C1C(=O)OC(=O)C21` (configuration not stated), the outcome was inactive.

As for `Cc1cc(O)c(/C=N/c2nc(-c3ccc([N+](=O)[O-])cc3)cs2)c(=O)o1`, the pEC50 is under 3.70 and the pIC50 was under 3.70. Take `Nc1ccc(N=Nc2ccc(-c3ccc(N=Nc4ccc(N)c5cc(S(=O)(=O)O)ccc45)cc3)cc2)c2ccc(S(=O)(=O)O)cc12`: the result was active. As for `O=c1oc2ccccc2c(O)c1/C=N/C(=S)NCc1ccccc1`, the pEC50 is under 3.70 and the pIC50 is under 3.70. On to `CCN(CC)C1Oc2cc3c(cc2C(c2cccc(OC)c2OC)C1C)OCO3` (configuration not stated), for which the pEC50 is under 3.70 and the pIC50 is 5.80. On to `CC1CC(=O)Nc2cc(Cl)ccc2N1C(=O)C1CC1` (configuration not stated), for which the pEC50 was under 3.70 and the pIC50 is under 3.70. Consider `Brc1c(C#CCC2CCCCC2)ccc(C#CCC2CCCCC2)c1Br`, for which the pEC50 is under 4.00 and the pIC50 was under 4.00.

With `Cc1cc(O)c2c(c1)C(O)(c1ccc3c(c1O)C(=O)c1c(O)cc(C)cc1C3(O)C1OC(CO)C(O)C(O)C1O)c1cccc(O)c1C2=O` (configuration not stated), the result was inactive. In the case of `CCOC(=O)C(C)(c1c[nH]c2ccccc12)c1c[nH]c2ccccc12`, the pEC50 was under 3.70 and the pIC50 is 4.71. For `C[N+](C)(N)c1nc(N)c(C#N)c(C#N)c1C#N`, the pEC50 was under 3.70 and the pIC50 was 4.48. Consider `CN1C(=S)NC2C(O)C(O)C(CO)OC21` (configuration not stated), for which the pEC50 is under 2.97 and the pIC50 was under 2.97. Regarding `Nc1nc(N)c(N=O)c(=O)[nH]1.[Cd]`, the pEC50 is under 3.70 and the pIC50 is 5.76. In the same order, the values of `C/C(=N/N=C(\[O-])c1ccncc1)C(F)(F)F.C/C(=N\N=C(/[O-])c1ccncc1)C(F)(F)F.[Cu+2]` are under 3.70 and 4.74. For `O=c1c2ncn(C3CCCO3)c2n(-c2ccccc2)c(=S)n1-c1ccccc1` (configuration not stated), the pEC50 was under 3.70 and the pIC50 is under 3.70.

Regarding `CCOC(=O)c1nc2ccc(Cl)cc2c2c1CCO2`, the pEC50 was under 5.28 and the pIC50 is under 5.28. For the compound `COc1ccc(OC)c(/C=C/[N+](=O)[O-])c1`, the pEC50 is under 3.70 and the pIC50 is 5.53. For `COc1ccc(-c2cc(=O)c3c(OC)c(OC)c(OC)c(OC)c3o2)cc1OC`, in that order: under 3.70 and 4.47. In the same order, the values of `Cc1c(C)c2ccc3oc4ccccc4c3c2oc1=O` are under 4.42 and under 4.42. For `CO/C(=N\N=C\c1cccc(Cl)c1)c1ccncc1`, in that order: under 3.88 and 4.08.

As to `CCCCCCCCCC=C(c1cc(Cl)c(OC)c(C(=O)O)c1)c1cc(Cl)c(OC)c(C(=O)O)c1`, the pEC50 is 3.58 and the negative logarithm of the IC50 (pIC50) is 3.50. For the compound `CC1=C(C)C(=O)c2c(cc3c4ccccc4ccn23)C1=O`, the result was inactive. In the case of `S=C1Cc2c(-c3ccccc3)cc(-c3ccc(Cl)cc3)nc2-c2ccccc2N1`, the pEC50 was under 3.70 and the pIC50 was 5.47. Consider `O=C(O)c1ccccc1O`, for which the pEC50 was under 2.74, the outcome was inactive and the pIC50 was 3.16. On to `O=S(=O)(O)OCC1OC2OC3C(COS(=O)(=O)O)OC(OC4C(COS(=O)(=O)O)OC(OC5C(COS(=O)(=O)O)OC(OC6C(COS(=O)(=O)O)OC(OC7C(COS(=O)(=O)O)OC(OC8C(COS(=O)(=O)O)OC(OC1C(OS(=O)(=O)O)C2OS(=O)(=O)O)C(OS(=O)(=O)O)C8OS(=O)(=O)O)C(OS(=O)(=O)O)C7OS(=O)(=O)O)C(OS(=O)(=O)O)C6OS(=O)(=O)O)C(OS(=O)(=O)O)C5OS(=O)(=O)O)C(OS(=O)(=O)O)C4OS(=O)(=O)O)C(OS(=O)(=O)O)C3OS(=O)(=O)O` (configuration not stated), for which the pEC50 was 4.67 and < 4.30; the pIC50 was 4.12 and < 4.30. Regarding `CCOC(=O)/C(=C\c1ccc(OC)cc1)[Se]c1ccccc1`, the pEC50 was under 4.70 and the pIC50 was under 4.70. Turning to `COc1ccc2nc3n(c2c1)C(c1c(Cl)cccc1Cl)SC3` (configuration not stated), the pEC50 is under 3.70 and the negative-log IC50 (pIC50) was under 3.70.
